The target in experiment [1] is T1, E6AP (Homo sapiens, UniProt Q05086, K489R).
T1 construct: Similarly, E6AP453-852: wild-type HECTd, K466R or catalytic dead HECTd-C820A; expressed in transfected cells; host or cells: Mach1-T1R E. coli
T1 sequence (Q05086 453-852 isoform Q05086-2 K466R): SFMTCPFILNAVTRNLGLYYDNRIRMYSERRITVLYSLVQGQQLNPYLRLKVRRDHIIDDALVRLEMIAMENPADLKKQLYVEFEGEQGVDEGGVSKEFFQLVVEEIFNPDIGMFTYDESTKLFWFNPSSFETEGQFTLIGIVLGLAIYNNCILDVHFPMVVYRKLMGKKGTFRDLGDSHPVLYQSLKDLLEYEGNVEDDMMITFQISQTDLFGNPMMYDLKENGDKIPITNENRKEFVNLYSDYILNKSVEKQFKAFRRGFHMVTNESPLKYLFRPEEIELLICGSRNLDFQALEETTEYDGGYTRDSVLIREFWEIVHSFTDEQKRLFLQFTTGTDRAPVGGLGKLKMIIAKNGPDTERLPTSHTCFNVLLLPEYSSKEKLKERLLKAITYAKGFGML
The experiment in a line: E. coli split-CAT E6AP reporter system. The experiment is classed as cell-based. Here is the method:
(§1) Assays were performed as previously described.84,85 The selection plasmids were co-transformed into Mach1™-T1R E. coli cells. All growth assays were performed in LB agar or liquid at 37° C. Optimization of chloramphenicol (CAM) concentrations were performed according to the largest growth shift between the hyperactive mutant to the catalytic dead mutant in SMURF1 (ΔC2-K381R; ΔC2-C725A) or in E6AP (HECTd-K466R; HECTd-C820A) at each assay as previously described. The disclosers constructed a split-CAT based E3-dependent Rpn10 full length ubiquitylation cascade to monitor the effect of inhibitor and point mutations in ubiquitin E3 ligases. Specifically, yeast Rpn10 was tethered to N-CAT as a general ubiquitylation target and co-expressed with C-CAT-Ub, E1, E2 and human SMURF1235-757: wild-type DC2, K381R or catalytic dead C725A. Similarly, E6AP453-852: wild-type HECTd, K466R or catalytic dead HECTd-C820A.
To inspect ubiquitylation of BMPR2, the disclosures substituted Rpn10 with BMPR2174-558 cytosolic portion fused to the N-CAT. […] Inhibition assays were performed in liquid LB using 96 well-plate with Tecan Sunrise reader high intensity shaking for 9.5 mins rest for 10, 5 mins shake and read at 595 nm. Growth was monitored between 12-36 Hrs as indicated. […]

In experiment [2] the test system is E1, E2, CAT. The experiment in a line: Split-CAT system counter-checks (E1, E2, CAT activity, E. coli toxicity). Type of experiment: cell-based. Here is the method:
as §1
To inspect ubiquitylation of BMPR2, the disclosures substituted Rpn10 with BMPR2174-558 cytosolic portion fused to the N-CAT. […] Inhibition assays were performed in liquid LB using 96 well-plate with Tecan Sunrise reader high intensity shaking for 9.5 mins rest for 10, 5 mins shake and read at 595 nm. Growth was monitored between 12-36 Hrs as indicated.

Experiment [3] relates to SMURF1 mRNA. The experiment in a line: Screen for modulators of SMURF1 mRNA abundance in PASMCs. The experiment is classed as cell-based, human. The conditions noted are these: PASMCs from PAH patients; normalized Ct values. Here is the method:
(§2) FIG. 13. (A) Screen for modulators of SMURF1 mRNA abundance in PASMCs. Human PASMCs from PAH patients were treated with agents that are associated with PAH, including cytokines, chemokines, growth factors, and small molecule pathway probes, and were cultured under hypoxic conditions to identify modulators of SMURF1 mRNA (n=2 donors). […] The human SMURF1 promoter was stably transfected into HEK293 cells upstream of a GFP sequence.

In experiment [4] the test system is human SMURF1 promoter. The experiment in a line: Human SMURF1 promoter-GFP reporter in HEK293 cells. Type of experiment: cell-based. To be noted: HEK293 stably transfected. Here is the method:
as §2

Take `Cc1ccc(-n2ccnc2N2CCN(C(=O)C34CC5CC(CC(C5)C3)C4)CC2)cc1` [i-27, 1-[1-(4-methylphenyl)-imidazol-2-yl]-4-[adamantane-1-carbonyl]piperazine]: the “Inhibition of E6AP S739L, R740G double mutant” value in experiment [1] (escape mutant, FIG. 6K) is listed as “inhibition was reduced twofold”. In addition, in experiment [1] (hyperactive HECTd-K466R E6AP, FIG. 6I), the E6AP activity result is “reduced E6AP activity in a dose-dependent manner”. In addition, the “Effect on E1, E2, or CAT activities” value in experiment [2] is on record as “without affecting E1, E2, or CAT activities”.

For “TGFβ1: transforming growth factor beta 1, agent in SMURF1 modulator screen”, in experiment [3], the “SMURF1 expression (mRNA)” value was “increase SMURF1 expression”. Also, the “GFP signal (SMURF1 promoter)” value in experiment [4] is on record as “increased GFP signal”.

With `CO/C1=C\C(C)=C\[C@@H](C)[C@@H](O)[C@@H](C)C/C(C)=C/C=C/[C@H](OC)[C@@H]([C@@H](C)[C@@H](O)[C@H](C)[C@@]2(O)C[C@@H](O)[C@H](C)[C@@H](C(C)C)O2)OC1=O` [bafilomycin A1, reference compound], the “GFP signal (SMURF1 promoter)” value in experiment [4] is recorded as “increased GFP signal”.
